From US9695191B2, “Conformationally constrained, fully synthetic macrocyclic compounds” (POLYPHOR AG, priority 2009, dated 2017)
Like-named read-outs stand apart in the source and are kept apart here.

Experiments:
[1] = amide bond
[2] = human, 10 μM
Method: (§2) Example compounds were dissolved in DMSO/H2O 90:10 to a final concentration of 10 mM for plasma stability determination and metabolic stability determination.
(§3) Human plasma (3-5 donors, Blutspendedienst SRK, Basel) and CD-1 mouse plasma (mixed gender pool>50 animals, Innovative Research, CA, USA) are both sodium citrate stabilized. The assay is performed in triplicates at 10 μM compound concentration and 37° C. Samples are taken at 0, 15, 60, and 240 minutes and stopped by precipitation with 2 volumes of acetonitrile. The supernatant is collected, evaporated and reconstituted in a 5% acetonitrile solution to be analyzed by HPLC/MS/MS. The resulting peak area counts are expressed in percent of the 0 value and used to determine the endpoint stability in % and the half life T½ in minutes. In order to monitor assay integrity the degradation of propantheline is assayed with every experimental set

[3] = both, CD-1, mouse, 10 μM
Method: as §2, §3

[4] = Metabolic stability, human microsomes; format: in vitro ADME; details: % of the initial 0 minutes value at 60 min, 10 μM, 37° C.
Method: (§1) Microsomes from a human 50 donor mixed gender pool and 1:1 mixtures of microsomes from CD-1 mouse single-gender pools are purchased from Celsis (Belgium). The enzymatic reaction is performed in a buffer containing an NADPH regeneration system and microsomes with the following end concentrations: 100 mM potassium phosphate buffer (all from Sigma), 1 mg/mL glucose-6-phosphate, 1 mg/mL β-nicotinamide adenine dinucleotide phosphate (NADP), 0.65 mg/mL magnesium chloride, 0.8 units/mL of glucose-6-phosphate dehydrogenase (prediluted with 5 mM citrate buffer), 10 μM compound and 1 mg/ml microsomal protein. Compounds are incubated at 37° C. in duplicates and samples are taken after 0, 20 and 60 minutes. After acetonitrile precipitation (2 volumes) and HPLC/MS/MS analysis metabolic turnover is expressed in % of the initial 0 minutes value and half life T½ (min) is calculated. Verapamil for human and propranolol for mouse are used as reference and are assayed with every experimental set. • F. P. Guengerich, Analysis and Characterization of Enzymes; in: Principles and Methods of Toxicology; A. W. Hayes (Ed.) Raven Press: New York, 1989, 777-813. • R. Singh et al., In vitro metabolism of a potent HIV-protease inhibitor (141W94) using rat, monkey and human liver S9, Rapid Commun. Mass Spectrom. 1996, 10, 1019-1026. 5. Results

[5] = Metabolic stability, CD-1 mouse microsomes; format: in vitro ADME; details: % of the initial 0 minutes value at 60 min, 10 μM, 37° C.
Method: as §1

| Structure (SMILES) | Plasma Stability 240 min hum [2] | Plasma Stability 240 min mouse [3] | Metabolic Stability 60 min hum [4] | Metabolic Stability 60 min mouse [5] | further results |
| --- | --- | --- | --- | --- | --- |
| CN1C(=O)c2cc(F)ccc2OC[C@@H]2CN(C(=O)OC(C)(C)C)CCN2C(=O)CC[C@H]1C(=O)OCc1ccccc1 | – | – | – | – | ring closure, yield of all isomers ([1]; from CN(C(=O)c1cc(F)ccc1OC[C@@H]1CN(C(=O)OC(C)(C)C)CCN1)[C@@H](CCC(=O)O)C(=O)OCc1ccccc1, T3P, CH2Cl2, 0.57 mM, 25.0 °C, 22.0 h): 77% |
| CN1C(=O)c2cc(F)ccc2OC[C@@H]2C[C@H](NC(=O)OCC[Si](C)(C)C)CN2C(=O)CC[C@H]1C(=O)OCc1ccccc1 | – | – | – | – | ring closure, yield of all isomers ([1]; from CN(C(=O)c1cc(F)ccc1OC[C@@H]1C[C@H](NC(=O)OCC[Si](C)(C)C)CN1)[C@@H](CCC(=O)O)C(=O)OCc1ccccc1, T3P, CH2Cl2, 10.0 mM, 25.0 °C, […]): 61% |
| CN1CC(=O)N2C[C@@H](NC(=O)OC(C)(C)C)C[C@H]2COc2ccc(F)cc2C(=O)N(C)[C@H](C(=O)OCc2ccccc2)CCC1=O | – | – | – | – | ring closure, yield of all isomers ([1]; from CNCC(=O)N1C[C@@H](NC(=O)OC(C)(C)C)C[C@H]1COc1ccc(F)cc1C(=O)N(C)[C@@H](CCC(=O)O)C(=O)OCc1ccccc1, FDPP, DMF, 8.44 mM, 25.0 °C, 22.0 h): 94% |
| CN1CC(=O)N2C[C@@H](NC(=O)OCC[Si](C)(C)C)C[C@H]2COc2cccc3c2C[C@@](NC(=O)OC(C)(C)C)(CC3)C(=O)N(C)C[C@H](NC(=O)OCc2ccccc2)C1=O | – | – | – | – | ring closure, yield of all isomers ([1]; from CN(CC(=O)O)C(=O)[C@H](CN(C)C(=O)[C@]1(NC(=O)OC(C)(C)C)CCc2cccc(OC[C@@H]3C[C@H](NC(=O)OCC[Si](C)(C)C)CN3)c2C1)NC(=O)OCc1ccccc1, T3P, CH2Cl2, 10.0 mM, 2.0 h): 44% |
| CN1CC(=O)N2C[C@H](NC(=O)OC(C)(C)C)C[C@H]2COc2ccc(F)cc2C(=O)N(C)[C@H](C(=O)OCc2ccccc2)CCC1=O | – | – | – | – | ring closure, yield of all isomers ([1]; from CNCC(=O)N1C[C@H](NC(=O)OC(C)(C)C)C[C@H]1COc1ccc(F)cc1C(=O)N(C)[C@@H](CCC(=O)O)C(=O)OCc1ccccc1, T3P, CH2Cl2, 10.5 mM, 25.0 °C, 22.0 h): 87% |
| CN1CC(=O)N2C[C@H](NC(=O)OC(C)(C)C)C[C@H]2COc2ccc(cc2)C(=O)N(C)[C@H](C(=O)OCc2ccccc2)CCC1=O | – | – | – | – | ring closure, yield of all isomers ([1]; from CNCC(=O)N1C[C@H](NC(=O)OC(C)(C)C)C[C@H]1COc1ccc(C(=O)N(C)[C@@H](CCC(=O)O)C(=O)OCc2ccccc2)cc1, T3P, CH2Cl2, 1.05 mM, 3.0 h): 54% |
| CN1CC(=O)N2C[C@H](NC(=O)OC(C)(C)C)C[C@H]2CSc2cccc(c2)C(=O)N(C)[C@H](C(=O)OCc2ccccc2)CCC1=O | – | – | – | – | ring closure, yield of all isomers ([1]; from CNCC(=O)N1C[C@H](NC(=O)OC(C)(C)C)C[C@H]1CSc1cccc(C(=O)N(C)[C@@H](CCC(=O)O)C(=O)OCc2ccccc2)c1, T3P, CH2Cl2, 10.0 mM, 25.0 °C, 3.0 h): 57% |
| CN1CCC[C@H](NC(=O)OCc2ccccc2)C(=O)N2C[C@@H](NC(=O)OCC[Si](C)(C)C)C[C@H]2COc2cccc(c2)C1=O | – | – | – | – | ring closure, yield of all isomers ([1]; from CN(CCC[C@H](NC(=O)OCc1ccccc1)C(=O)O)C(=O)c1cccc(OC[C@@H]2C[C@H](NC(=O)OCC[Si](C)(C)C)CN2)c1, T3P, i-Pr2NEt, CH2Cl2, 9.4 mM): 54% |
| CN(C)CCNC(=O)[C@H]1CCC(=O)N(C)CC(=O)N2CCN(C(=O)Cc3ccc4ccccc4c3)C[C@@H]2COc2ccc(F)cc2C(=O)N1C [Ex. 138, (12R,20aR)-N-[2-(dimethylamino)ethyl]-16-fluoro-8,13-dimethyl-2-[2-(2-naphthyl)acetyl]-6,9,14-trioxo-1,2,3,4,7,8,9,10,11,12,13,14,20,20a-tetradecahydro-6H-pyrazino[2,1-c][1,4,7,12] benzoxatriazacyclopentadecine-12-carboxamide] | 89% | 78% | 62% | 99% | – |
| CN1CCC[C@H](NC(=O)OCc2ccccc2)C(=O)N2C[C@@H](NC(=O)Cc3ccc4ccccc4c3)C[C@H]2COc2cccc(c2)C1=O [Ex. 184, benzyl N-[(4S,6S,10S)-14-methyl-6-{[2-(2-naphthyl)acetyl]amino}-9,15-dioxo-2-oxa-8,14-diazatricyclo[14.3.1.0^4,8]icosa-1(20),16,18-trien-10-yl]carbamate] | 66% | 58% | 0% | 0% | – |
| CC(=O)N[C@H]1CN(C)C(=O)c2cccc(c2)OC[C@@H]2C[C@H](NC(=O)CN(C)C)CN2C(=O)CN(C)C1=O [Ex. 208, N-[(4S,6S,13S)-13-(acetylamino)-11,15-dimethyl-9,12,16-trioxo-2-oxa-8,11,15-triazatricyclo[15.3.1.0^4,8]henicosa-1(21),17,19-trien-6-yl]-2-(dimethylamino)acetamide] | 98% | 90% | 84% | 100% | – |

Continued, in another order:

| Plasma Stability 240 min hum [2] | Plasma Stability 240 min mouse [3] | Metabolic Stability 60 min hum [4] | Metabolic Stability 60 min mouse [5] | Structure (SMILES) | further results |
| --- | --- | --- | --- | --- | --- |
| 65% | 75% | 4% | 39% | CCCCCCCCCC(=O)N[C@H]1C[C@H]2COc3ccc(F)cc3C(=O)N(C)[C@H](C(=O)NCc3ccc4ccccc4c3)CCC(=O)N(C)CC(=O)N2C1 [Ex. 102, (2S,11S,19aS)-2-(decanoylamino)-15-fluoro-7,12-dimethyl-N-(2-naphthylmethyl)-5,8,13-trioxo-2,3,6,7,8,9,10,11,12,13,19,19a-dodecahydro-1H,5H-pyrrolo[2,1-c][1,4,7,12] benzoxatriazacyclopentadecine-11-carboxamide] | – |
| 91% | 100% | 12% | 26% | CN1C[C@H](NC(=O)OCc2ccccc2)C(=O)N(C)CC(=O)N2C[C@@H](NC(=O)Cc3c[nH]c4ccccc34)C[C@H]2COc2cccc(c2)C1=O [Ex. 200, benzyl N-[(4S,6S,13S)-6-{[2-(1H-indol-3-yl)acetyl]amino}-11,15-dimethyl-9,12,16-trioxo-2-oxa-8,11,15-triazatricyclo[15.3.1.0^4,8]henicosa-1(21),17,19-trien-13-yl]carbamate] | – |
| 100% | 95% | 61% | 90% | CN(C)CC(=O)N[C@@H]1C[C@H]2COc3cccc(c3)C(=O)N(C)C[C@H](NC(=O)Cc3ccc4ccccc4c3)C(=O)N(C)CC(=O)N2C1 [Ex. 230, 2-(dimethylamino)-N-[(4S,6R,13S)-11,15-dimethyl-13-{[2-(2-naphthyl)acetyl]amino}-9,12,16-trioxo-2-oxa-8,11,15-triazatricyclo[15.3.1.0^4,8]henicosa-1(21),17,19-trien-6-yl]acetamide] | – |
| 100% | 100% | 19% | 69% | CN1CC(=O)N2C[C@H](NC(=O)CCc3ccncc3)C[C@H]2COc2ccc(cc2)C(=O)N(C)[C@H](C(=O)NCc2ccc3ccccc3c2)CCC1=O [Ex. 260, (4S,6R,15S)-11,16-dimethyl-N-(2-naphthylmethyl)-9,12,17-trioxo-6-{[3-(4-pyridinyl)propanoyl]amino}-2-oxa-8,11,16-triazatricyclo[16.2.2.0^4,8]docosa-1(20),18,21-triene-15-carboxamide] | – |
| 100% | 93% | 0% | 4% | CCN(CC)[C@@H]1C[C@H]2COc3ccc(cc3)C(=O)N(C)[C@H](C(=O)NCc3ccc4ccccc4c3)CCC(=O)N(C)CC(=O)N2C1 [Ex. 262, (4S,6R,15S)-6-(diethylamino)-11,16-dimethyl-N-(2-naphthylmethyl)-9,12,17-trioxo-2-oxa-8,11,16-triazatricyclo [16.2.2.0^4,8]docosa-1(20),18,21-triene-15-carboxamide] | – |
| 92% | 74% | 100% | 98% | CN1CC(=O)N2C[C@H](NC(=O)CN3CCCC3)C[C@H]2COc2ccc(cc2)C(=O)N(C)[C@H](C(=O)NCc2ccncc2)CCC1=O [Ex. 266, (4S,6R,15S)-11,16-dimethyl-9,12,17-trioxo-N-(4-pyridinylmethyl)-6-{[2-(1-pyrrolidinyl)acetyl]amino}-2-oxa-8,11,16-triazatricyclo[16.2.2.0^4,8]docosa-1(20),18,21-triene-15-carboxamide] | – |
| 75% | 79% | 99% | 100% | CN1CC(=O)N2C[C@H](NC(=O)CCC(=O)O)C[C@H]2COc2ccc(cc2)C(=O)N(C)[C@H](C(=O)NCc2ccncc2)CCC1=O [Ex. 267, 4-{[(4S,6R,15S)-11,16-dimethyl-9,12,17-trioxo-15-{[(4-pyridinylmethyl)amino]carbonyl}-2-oxa-8,11,16-triazatricyclo [16.2.2.0^4,8]docosa-1(20),18,21-trien-6-yl]amino}-4-oxobutanoic acid] | – |
